Test results published in patent publication US6576642B2, “Diamide compounds and compositions containing the same” (Kowa Co., Ltd., priority 1996, dated 2003).

Test system: production of IgE antibody
Assay: Evaluation of inhibitory effect on production of IgE antibody (mouse spleen B cells cultured with LPS and IL-4, IgE in supernatant by ELISA)
Type: cell-based
Conditions: test agent at 10^-5 M; mouse (Balb/C) B cells, LPS + mouse IL-4, IgE in culture supernatant by ELISA
Experimental: Evaluation of inhibitory effect on production of IgE antibody:
A spleen was enucleated from a mouse (Balb/C, male, aged 8 weeks) and shredded in 0.3% BSA/HBSS to prepare single cells by means of a 200-mesh screen. Further, the single cells were hemolyzed by 0.75% ammonium chloride-17 mM Tris solution to prepare a splenocyte suspension (1×10^7/ml) using RPMI 1640 medium/25 mM HEPES/0.3% BSA. After the suspension was reacted with a mouse anti-mouse Thy-1.2 monoclonal antibody (product of Cedarlane Co.) at 4° C. for 1 hour, the reaction mixture was centrifuged, and the sediment cells were suspended again (1×10^7/ml, RPMI/HEPES/BSA). After the suspension was then reacted with a low-cytotoxic rabbit complement (product of Cedarlane Co.) at 37° C. for 1 hour, killed cells were removed by specific gravity centrifugation using lympholyte M (product of Cedarlane Co.) to obtain a B cell fraction as viable cells.
After B cells (10^5/0.2 ml/well) were cultured for a day together with LPS (E. coli 026:B6, product of DIFCO Co.) using a 96-well plate, mouse IL-4 (product of Genzyme Co.) was added to conduct culture further for 7 days.
Each test was added on the first day of the culture, and the amount of IgE in a culture supernatant was meausred by ELISA after the culture, thereby calculating out the inhibitory effect of the agent on the production of an IgE antibody.

Compared with COc1cc(/C=C/C=C/C(=O)N[C@@H]2CCCC[C@H]2NC(=O)/C=C/C=C/c2cc(OC)c(OC)c(OC)c2)cc(OC)c1OC (relative stereo) [Example 15, trans-N,N′-bis[5-(3,4,5-trimethoxy-phenyl)penta-(2E,4E)-dienoyl]-1,2-diaminocyclohexane], COc1cc(/C=C/C=C/C(=O)Nc2ccccc2NC(=O)/C=C/C=C/c2cc(OC)c(OC)c(OC)c2)cc(OC)c1OC [Example 26, N,N′-bis[5-(3,4,5-trimethoxyphenyl)-penta-(2E,4E)-dienoyl]-1,2-diaminobenzene] is lower in “Inhibitory effect on production of IgE (%)” value (from here on “Inhibitory effect … (%)”): 100% for the first, 85% for the second.

Going from COc1cc(/C=C/C=C/C(=O)N(C)CCCCCCN(C)C(=O)/C=C/C=C/c2cc(OC)c(OC)c(OC)c2)cc(OC)c1OC [Example 5, N,N′-bis[5-(3,4,5-trimethoxyphenyl)-penta-(2E,4E)-dienoyl]-N,N′-dimethyl-1,6-diaminohexane] to COc1cc(/C=C/C=C/C(=O)Nc2cccnc2NC(=O)/C=C/C=C/c2cc(OC)c(OC)c(OC)c2)cc(OC)c1OC [Example 38, 2,3-bis[5-(3,4,5-trimethoxyphenyl)-penta-(2E,4E)-dienoylamino]pyridine], the “Inhibitory effect … (%)” value falls from 90% to 80%.

For COc1cc(/C=C/C=C/C(=O)NCc2ccc(CNC(=O)/C=C/C=C/c3cc(OC)c(OC)c(OC)c3)cc2)cc(OC)c1OC [Example 22, N,N′-bis[5-(3,4,5-trimethoxyphenyl)-penta-(2E,4E)-dienoyl]-1,4-bis(aminomethyl)benzene], the “Inhibitory effect … (%)” value was 90%.
